Laboratory results: BindingDB's records for doi:10.1111/cbdd.12131 (University of Pisa, 2013)

Assays:
Adenosine receptor A1 = biological target: T1, Adenosine receptor A1 (Rattus norvegicus, UniProt P25099); assay: Radiological Binding Assay; settings: pH 7.4
T1 sequence (P25099 whole entry): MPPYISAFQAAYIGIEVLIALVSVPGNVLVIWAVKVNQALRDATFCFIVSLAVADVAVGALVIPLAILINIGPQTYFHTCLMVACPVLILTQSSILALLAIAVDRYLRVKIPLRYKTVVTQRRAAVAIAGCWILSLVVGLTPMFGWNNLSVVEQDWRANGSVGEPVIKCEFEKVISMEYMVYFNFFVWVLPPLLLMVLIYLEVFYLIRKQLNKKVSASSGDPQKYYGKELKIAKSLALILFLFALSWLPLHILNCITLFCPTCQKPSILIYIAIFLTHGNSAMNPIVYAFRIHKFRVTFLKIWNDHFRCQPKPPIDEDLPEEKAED
Protocol: For A1 adenosine receptors, […] of protein were incubated for 60 min at 25°C with [3H]DPCPX 0.5 nM (Kd = 0.4 nM) and increasing concentrations of the compounds, in a final volume of 0.4 mL of Tris-HCl buffer. Binding reaction was terminated by dilution with ice-cold 50 mM Tris-HCl buffer, pH 7.4.For A2A and A3 adenosine receptors, […] of protein were incubated with [3H]ZM241385 6 nM (Kd = 4 nM) in the experiments involving A2A and with [3H]NECA 15 nM (Kd = 150 nM) involving A3 and the compounds to be assayed, at fixed concentration (10 µM) or at increasing concentrations of the compounds in duplicate, in a final volume of 0.4 mL of Tris-HCl buffer for 120 min at 25°C. Non-specific binding was measured in the presence of 100 µM NECA in the case of A2A and 100 µM R-PIA in the case of A3 binding assay. Bound radioactivity of all samples was measured in a liquid scintillation counter (1600 TR Packard) after the addition of 4 mL of scintillation liquid (Emulsifier-Safe; Hewlett-Packa

[1] = biological target: Adenosine receptor A1 (rat); assay: For A1 adenosine receptors, […] of protein were incubated for 60 min at 25°C with [3H]DPCPX 0.5 nM (Kd = 0.4 nM) and increasing concentrations of the compounds, in a final volume of 0.4 mL of Tris-HCl buffer. Binding reaction was terminated by dilution with ice-cold 50 mM Tris-HCl buffer, pH 7.4.For A2A and A3 adenosine receptors, […]
Adenosine receptor A2a = assay: as above

Nc1nc(-c2ccccc2)nc2c1nnn2Cc1ccccc1F [9-(ortho-fluorobenzyl)-2-phenyl-azaadenine (1bis)]
Ki (Adenosine receptor A1): 3.8 nM
Ki [1]: 3.8 nM

O=C(Nc1nc(-c2ccccc2)nc2c1nnn2Cc1ccccc1F)C1CC1 [N-[9-(ortho-fluorobenzyl)-2-phenyl-9H-8-azapurin-6-yl]-amides (2)]
Ki [1]: 9.2 nM
Ki (Adenosine receptor A2a): 292 nM

O=C(Nc1nc(-c2ccccc2)nc2c1nnn2Cc1ccccc1F)C1CCC1 [N-[9-(ortho-fluorobenzyl)-2-phenyl-9H-8-azapurin-6-yl]-amides (3)]
Ki [1]: 0.71 nM
Ki (Adenosine receptor A2a): 72 nM

O=C(Nc1nc(-c2ccccc2)nc2c1nnn2Cc1ccccc1F)C1CCCC1 [N-[9-(ortho-fluorobenzyl)-2-phenyl-9H-8-azapurin-6-yl]-amides (4)]
Ki [1]: 1.4 nM
Ki (Adenosine receptor A2a): 190 nM

O=C(Nc1nc(-c2ccccc2)nc2c1nnn2Cc1ccccc1F)C1CCCCC1 [N-[9-(ortho-fluorobenzyl)-2-phenyl-9H-8-azapurin-6-yl]-amides (5)]
Ki [1]: 2.1 nM
Ki (Adenosine receptor A2a): 413 nM

O=C(Nc1nc(-c2ccccc2)nc2c1nnn2Cc1ccccc1F)c1ccco1 [N-[9-(ortho-fluorobenzyl)-2-phenyl-9H-8-azapurin-6-yl]-amides (6)]
Ki [1]: 5.5 nM
Ki (Adenosine receptor A2a): 224 nM

O=C(Nc1nc(-c2ccccc2)nc2c1nnn2Cc1ccccc1F)c1ccoc1 [N-[9-(ortho-fluorobenzyl)-2-phenyl-9H-8-azapurin-6-yl]-amides (7)]
Ki [1]: 2.3 nM
Ki (Adenosine receptor A2a): 91 nM

O=C(Nc1nc(-c2ccccc2)nc2c1nnn2Cc1ccccc1F)c1cccc(Cl)c1 [N-[9-(ortho-fluorobenzyl)-2-phenyl-9H-8-azapurin-6-yl]-amides (8)]
Ki [1]: 43 nM

O=C(Nc1nc(-c2ccccc2)nc2c1nnn2Cc1ccccc1F)c1cccc(F)c1 [N-[9-(ortho-fluorobenzyl)-2-phenyl-9H-8-azapurin-6-yl]-amides (9)]
Ki [1]: 5.5 nM

O=C(Nc1nc(-c2ccccc2)nc2c1nnn2Cc1ccccc1F)c1cccc([N+](=O)[O-])c1 [N-[9-(ortho-fluorobenzyl)-2-phenyl-9H-8-azapurin-6-yl]-amides (11)]
Ki [1]: 28 nM

O=C(Nc1nc(-c2ccccc2)nc2c1nnn2Cc1ccccc1F)c1ccc([N+](=O)[O-])cc1 [N-[9-(ortho-fluorobenzyl)-2-phenyl-9H-8-azapurin-6-yl]-amides (12)]
Ki [1]: 14 nM

O=C(Nc1nc(-c2ccccc2)nc2c1nnn2Cc1ccccc1F)c1ccc(I)cc1 [N-[9-(ortho-fluorobenzyl)-2-phenyl-9H-8-azapurin-6-yl]-amides (13)]
Ki [1]: 92 nM

Nc1ccc(C(=O)Nc2nc(-c3ccccc3)nc3c2nnn3Cc2ccccc2F)cc1 [N-[9-ortho-fluorobenzyl)-2-phenyl-9H-8-azapurin-6-yl]-amides (15)]
Ki [1]: 18 nM
